Assay results from ChEMBL document CHEMBL1158741, “Majusculoic acid, a brominated cyclopropyl fatty acid from a marine cyanobacterial mat assemblage” (2005).
In brackets after ≈: the same amount, converted by molar mass. Activity calls are given as the source filed them. The calls are words filed in the database; no cut-off is given here.

Tests used:
[1] = tested on: Candida albicans; assay: Antifungal activity against Candida albicans ATCC 14503; format: functional
[2] = tested on: Candida albicans; assay: Antifungal activity against fluconazole-resistant Candida albicans UCD FR1; format: functional, organism-based
[3] = tested on: Nakaseomyces glabratus; assay: Antifungal activity against Candida glabrata; format: functional

SMILES | MIC [1] | Activity [2] | MIC [3]
OC(Cn1cncn1)(Cn1cncn1)c1ccc(F)cc1F [FLUCONAZOLE] | 1 µM (≈ 0.306 µg/mL) | – | –
CCC/C(Br)=C/C=C/CC[C@H]1C[C@@H]1CCC(=O)O [MAJUSCULOIC ACID] | 8 µM (≈ 2.52 µg/mL) | inactive | 19.3 µM (≈ 6.08 µg/mL)
